Blank lines part the entries; values can stand above or below the compound they belong to.
Key:
Experiment in all cases: Caliper, Mobility shift assay off-chip
[1] = test system: ABL1 (human), P00519 [H396P]
[2] = test system: ABL1 (human), P00519 [Q252H]
[3] = test system: ABL1 (human), P00519 [T315I]
AURKB (human) = AURKB (human) (UniProt Q96GD4)
BMX (human) = BMX (human) (UniProt P51813)
BTK (human) = BTK (human) (UniProt Q06187)
CAMK2D (human) = CAMK2D (human) (UniProt Q13557)
CAMK4 (human) = CAMK4 (human) (UniProt Q16566)
Chain of CAMK4 (human) (Q16566 whole entry, looked up): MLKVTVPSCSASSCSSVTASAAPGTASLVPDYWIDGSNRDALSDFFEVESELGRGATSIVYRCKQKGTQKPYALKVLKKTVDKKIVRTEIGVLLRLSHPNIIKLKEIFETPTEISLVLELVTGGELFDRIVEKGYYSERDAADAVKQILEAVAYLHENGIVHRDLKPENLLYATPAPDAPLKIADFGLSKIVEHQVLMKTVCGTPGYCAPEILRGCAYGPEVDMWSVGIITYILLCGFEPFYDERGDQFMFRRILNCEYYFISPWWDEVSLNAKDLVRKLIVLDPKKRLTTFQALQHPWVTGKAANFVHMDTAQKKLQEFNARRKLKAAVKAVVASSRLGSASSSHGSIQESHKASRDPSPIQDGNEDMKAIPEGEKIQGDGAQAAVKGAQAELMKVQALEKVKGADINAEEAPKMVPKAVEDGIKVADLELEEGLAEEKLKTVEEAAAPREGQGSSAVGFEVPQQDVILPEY

CSNK1A1 (human) = CSNK1A1 (human) (UniProt P48729)
EGFR (human) = EGFR (human) (UniProt P00533); details: compound 0.1 µM
FER (human) = FER (human) (UniProt P16591); details: compound 0.1 µM
[4] = test system: FGFR2 (human), P21802 [N549H]
FGFR4 (human) = FGFR4 (human) (UniProt P22455)
IKBKB (human) = IKBKB (human) (UniProt O14920)
Chain of IKBKB (human) (O14920 whole entry, looked up): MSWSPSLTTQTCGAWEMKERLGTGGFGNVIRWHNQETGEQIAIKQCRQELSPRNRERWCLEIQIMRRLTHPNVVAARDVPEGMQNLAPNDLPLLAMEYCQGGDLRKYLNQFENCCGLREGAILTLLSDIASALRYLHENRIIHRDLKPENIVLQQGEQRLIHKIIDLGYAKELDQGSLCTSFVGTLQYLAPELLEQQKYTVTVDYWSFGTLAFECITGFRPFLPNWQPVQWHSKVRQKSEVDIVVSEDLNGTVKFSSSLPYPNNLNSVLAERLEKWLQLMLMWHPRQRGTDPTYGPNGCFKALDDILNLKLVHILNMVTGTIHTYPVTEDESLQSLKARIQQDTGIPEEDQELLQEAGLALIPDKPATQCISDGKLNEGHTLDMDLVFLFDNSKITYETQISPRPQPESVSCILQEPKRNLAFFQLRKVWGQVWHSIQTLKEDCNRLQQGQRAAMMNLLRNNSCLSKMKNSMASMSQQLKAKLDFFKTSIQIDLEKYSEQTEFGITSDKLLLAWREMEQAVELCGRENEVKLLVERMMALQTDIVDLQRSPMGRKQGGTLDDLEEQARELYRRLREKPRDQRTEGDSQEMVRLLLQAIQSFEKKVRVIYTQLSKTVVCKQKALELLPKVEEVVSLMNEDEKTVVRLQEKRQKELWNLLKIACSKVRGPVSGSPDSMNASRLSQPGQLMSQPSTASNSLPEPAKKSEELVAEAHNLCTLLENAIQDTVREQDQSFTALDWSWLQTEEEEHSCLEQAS

INSR (human) = INSR (human) (UniProt P06213)
MAPK1 (human) = MAPK1 (human) (UniProt P28482)
MAPK14 (human) = MAPK14 (human) (UniProt Q16539)
Chain of MAPK14 (human) (Q16539 whole entry, looked up): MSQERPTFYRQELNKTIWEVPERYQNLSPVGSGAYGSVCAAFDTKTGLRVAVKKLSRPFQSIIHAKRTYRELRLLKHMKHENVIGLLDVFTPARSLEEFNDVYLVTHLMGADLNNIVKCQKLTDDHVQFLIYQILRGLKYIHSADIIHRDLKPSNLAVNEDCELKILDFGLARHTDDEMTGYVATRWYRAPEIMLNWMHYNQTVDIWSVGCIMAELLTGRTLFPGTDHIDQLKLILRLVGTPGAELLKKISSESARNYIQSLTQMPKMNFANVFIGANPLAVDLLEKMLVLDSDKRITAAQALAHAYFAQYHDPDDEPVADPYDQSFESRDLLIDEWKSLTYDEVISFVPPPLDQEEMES

MAPK3 (human) = MAPK3 (human) (UniProt P27361)
MAPKAPK2 (human) = MAPKAPK2 (human) (UniProt P49137)
Chain of MAPKAPK2 (human) (P49137 whole entry, looked up): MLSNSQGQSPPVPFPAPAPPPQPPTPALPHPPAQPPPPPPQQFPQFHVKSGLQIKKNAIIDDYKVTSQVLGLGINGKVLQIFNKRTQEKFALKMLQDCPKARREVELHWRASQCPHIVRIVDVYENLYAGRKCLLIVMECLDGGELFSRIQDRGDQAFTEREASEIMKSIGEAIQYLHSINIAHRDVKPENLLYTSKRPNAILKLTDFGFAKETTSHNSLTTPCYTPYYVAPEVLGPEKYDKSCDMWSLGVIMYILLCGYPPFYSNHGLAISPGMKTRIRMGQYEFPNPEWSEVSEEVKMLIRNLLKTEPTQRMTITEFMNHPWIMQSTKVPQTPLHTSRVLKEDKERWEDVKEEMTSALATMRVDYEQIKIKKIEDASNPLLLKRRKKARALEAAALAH

MAPKAPK5 (human) = MAPKAPK5 (human) (UniProt Q8IW41)
Chain of MAPKAPK5 (human) (Q8IW41 whole entry, looked up): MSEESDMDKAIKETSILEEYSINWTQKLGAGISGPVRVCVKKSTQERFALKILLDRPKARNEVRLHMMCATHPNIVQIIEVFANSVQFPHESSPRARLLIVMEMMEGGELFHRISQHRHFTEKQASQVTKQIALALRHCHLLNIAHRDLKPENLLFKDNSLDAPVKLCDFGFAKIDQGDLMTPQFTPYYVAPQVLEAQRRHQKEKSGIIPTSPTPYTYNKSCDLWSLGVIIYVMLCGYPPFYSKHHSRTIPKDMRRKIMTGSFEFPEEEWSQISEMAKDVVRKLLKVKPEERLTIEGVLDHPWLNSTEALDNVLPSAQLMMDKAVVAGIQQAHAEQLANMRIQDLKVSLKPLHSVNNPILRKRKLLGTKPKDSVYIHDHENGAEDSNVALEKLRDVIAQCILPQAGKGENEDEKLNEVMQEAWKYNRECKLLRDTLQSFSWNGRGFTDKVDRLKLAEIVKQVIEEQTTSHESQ

MARK2 (human) = MARK2 (human) (UniProt Q7KZI7)
MARK3 (human) = MARK3 (human) (UniProt P27448)
NEK2 (human) = NEK2 (human) (UniProt P51955)
PRKCA (human) = PRKCA (human) (UniProt P17252)
PRKCB1 (human) = PRKCB1 (human) (UniProt P05771)
Chain of PRKCB1 (human) (P05771 whole entry, looked up): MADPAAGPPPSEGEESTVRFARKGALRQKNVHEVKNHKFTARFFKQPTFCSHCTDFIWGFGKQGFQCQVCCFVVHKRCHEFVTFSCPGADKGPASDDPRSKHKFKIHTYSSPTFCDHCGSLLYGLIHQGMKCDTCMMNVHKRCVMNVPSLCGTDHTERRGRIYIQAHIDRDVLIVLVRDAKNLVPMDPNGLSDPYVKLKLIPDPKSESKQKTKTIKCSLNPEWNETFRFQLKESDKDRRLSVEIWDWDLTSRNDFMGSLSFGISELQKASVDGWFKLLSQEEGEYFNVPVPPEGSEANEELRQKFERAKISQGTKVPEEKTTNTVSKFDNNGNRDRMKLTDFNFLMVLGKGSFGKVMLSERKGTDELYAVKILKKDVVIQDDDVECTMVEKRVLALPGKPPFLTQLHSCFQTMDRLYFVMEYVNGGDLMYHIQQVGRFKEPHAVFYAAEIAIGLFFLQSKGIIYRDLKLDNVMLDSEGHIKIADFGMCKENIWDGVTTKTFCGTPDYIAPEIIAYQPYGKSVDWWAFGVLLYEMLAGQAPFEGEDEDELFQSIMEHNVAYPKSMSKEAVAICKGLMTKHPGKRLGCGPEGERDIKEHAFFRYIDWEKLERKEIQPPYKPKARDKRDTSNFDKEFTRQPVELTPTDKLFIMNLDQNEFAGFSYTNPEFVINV

PRKCB2 (human) = PRKCB2 (human) (UniProt P05771)
Chain of PRKCB2 (human) (P05771 whole entry, looked up): as above

PRKD1 (human) = PRKD1 (human) (UniProt Q15139)
ROCK2 (human) = ROCK2 (human) (UniProt O75116)
RPS6KA2 KD1 KD2 (human) = RPS6KA2 KD1 KD2 (human) (UniProt Q15349)
RPS6KA3 KD1 KD2 (human) = RPS6KA3 KD1 KD2 (human) (UniProt P51812)
RPS6KA5 KD1 KD2 (human) = RPS6KA5 KD1 KD2 (human) (UniProt O75582)
RPS6KB1 (human) = RPS6KB1 (human) (UniProt P23443)
SGK2 (human) = SGK2 (human) (UniProt Q9HBY8)
Chain of SGK2 (human) (Q9HBY8 whole entry, looked up): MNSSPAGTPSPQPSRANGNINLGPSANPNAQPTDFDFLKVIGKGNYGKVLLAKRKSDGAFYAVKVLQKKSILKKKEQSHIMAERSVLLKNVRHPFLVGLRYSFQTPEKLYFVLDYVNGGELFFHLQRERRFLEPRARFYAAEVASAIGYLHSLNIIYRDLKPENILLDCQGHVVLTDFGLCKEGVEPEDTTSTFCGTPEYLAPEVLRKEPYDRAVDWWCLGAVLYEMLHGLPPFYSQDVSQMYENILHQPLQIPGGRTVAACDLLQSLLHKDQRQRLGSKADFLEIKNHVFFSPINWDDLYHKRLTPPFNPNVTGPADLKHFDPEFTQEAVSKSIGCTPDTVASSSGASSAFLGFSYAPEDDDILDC

SYK (human) = SYK (human) (UniProt P43405)

inhibition ([1]; compound 0.1 µM): 14.9%
inhibition ([2]; compound 0.1 µM): 1.4%
inhibition ([3]; compound 0.1 µM): 3.3%
inhibition (AURKB (human); compound 0.1 µM): 34.7%
inhibition (BMX (human); compound 0.1 µM): -17.3%
inhibition (BMX (human); compound 1.0 µM): -2.8%
inhibition (BTK (human); compound 1.0 µM): 65%
inhibition (CAMK2D (human); compound 0.1 µM): 32%
inhibition (CAMK2D (human); compound 1.0 µM): 15.1%
inhibition (CAMK4 (human); compound 0.1 µM): -1.9%
inhibition (CAMK4 (human); compound 1.0 µM): -4.2%
inhibition (CSNK1A1 (human); compound 0.1 µM): -5%
inhibition (CSNK1A1 (human); compound 1.0 µM): -11%
inhibition (EGFR (human)): -4.8%
inhibition (FER (human)): 1.2%
inhibition ([4]; compound 0.1 µM): -2.9%
inhibition (FGFR4 (human); compound 0.1 µM): -8.7%
inhibition (IKBKB (human); compound 0.1 µM): 1.9%
inhibition (INSR (human); compound 0.1 µM): -128%
inhibition (INSR (human); compound 1.0 µM): -2%
inhibition (MAPK1 (human); compound 0.1 µM): 1.1%
inhibition (MAPK1 (human); compound 1.0 µM): -4.4%
inhibition (MAPK14 (human); compound 0.1 µM): 3.3%
inhibition (MAPK14 (human); compound 1.0 µM): -2.7%
inhibition (MAPK3 (human); compound 0.1 µM): 7.2%
inhibition (MAPK3 (human); compound 1.0 µM): 2.8%
inhibition (MAPKAPK2 (human); compound 0.1 µM): 7.6%
inhibition (MAPKAPK2 (human); compound 1.0 µM): 1.3%
inhibition (MAPKAPK5 (human); compound 0.1 µM): -4.3%
inhibition (MAPKAPK5 (human); compound 1.0 µM): -1.1%
inhibition (MARK2 (human); compound 0.1 µM): -12.6%
inhibition (MARK2 (human); compound 1.0 µM): 2.4%
inhibition (MARK3 (human); compound 0.1 µM): 2%
inhibition (MARK3 (human); compound 1.0 µM): -4.3%
inhibition (NEK2 (human); compound 0.1 µM): 2.7%
inhibition (NEK2 (human); compound 1.0 µM): -2.2%
inhibition (PRKCA (human); compound 0.1 µM): -28%
inhibition (PRKCA (human); compound 1.0 µM): -0.1%
inhibition (PRKCB1 (human); compound 0.1 µM): -20.8%
inhibition (PRKCB1 (human); compound 1.0 µM): -18.2%
inhibition (PRKCB2 (human); compound 0.1 µM): -4.3%
inhibition (PRKCB2 (human); compound 1.0 µM): -2.5%
inhibition (PRKD1 (human); compound 0.1 µM): -8.3%
inhibition (PRKD1 (human); compound 1.0 µM): -1.9%
inhibition (ROCK2 (human); compound 0.1 µM): 3.6%
inhibition (ROCK2 (human); compound 1.0 µM): -1.6%
inhibition (RPS6KA2 KD1 KD2 (human); compound 0.1 µM): -1.6%
inhibition (RPS6KA2 KD1 KD2 (human); compound 1.0 µM): -5.3%
inhibition (RPS6KA3 KD1 KD2 (human); compound 0.1 µM): 0.2%
inhibition (RPS6KA3 KD1 KD2 (human); compound 1.0 µM): -6%
inhibition (RPS6KA5 KD1 KD2 (human); compound 0.1 µM): 0.7%
inhibition (RPS6KA5 KD1 KD2 (human); compound 1.0 µM): -0.4%
inhibition (RPS6KB1 (human); compound 0.1 µM): -2.7%
inhibition (RPS6KB1 (human); compound 1.0 µM): 0%
inhibition (SGK2 (human); compound 0.1 µM): -9%
inhibition (SGK2 (human); compound 1.0 µM): -11.8%
inhibition (SYK (human); compound 0.1 µM): 13.6%
inhibition (SYK (human); compound 1.0 µM): 0.3%
SMILES: Cn1cc(-c2cnc3ccc4ccc(CS(=O)(=O)NCC5CCCCN5)cc4c(=O)c3c2)cn1 (stereo not drawn)

inhibition ([1]; compound 0.1 µM): 10.6%
inhibition ([1]; compound 1.0 µM): 13.9%
inhibition ([2]; compound 0.1 µM): 4.6%
inhibition ([2]; compound 1.0 µM): 9.3%
inhibition ([3]; compound 0.1 µM): 7.1%
inhibition ([3]; compound 1.0 µM): 4.4%
inhibition (AURKB (human); compound 0.1 µM): 10.5%
inhibition (AURKB (human); compound 1.0 µM): 34.7%
inhibition (BMX (human); compound 0.1 µM): -7.2%
inhibition (BMX (human); compound 1.0 µM): 8.8%
inhibition (BTK (human); compound 0.1 µM): -2.1%
inhibition (BTK (human); compound 1.0 µM): 22%
inhibition (CAMK2D (human); compound 0.1 µM): -16.1%
inhibition (CAMK2D (human); compound 1.0 µM): -3.6%
inhibition (CAMK4 (human); compound 0.1 µM): -0.1%
inhibition (CAMK4 (human); compound 1.0 µM): 3.5%
inhibition (CSNK1A1 (human); compound 0.1 µM): -8.6%
inhibition (CSNK1A1 (human); compound 1.0 µM): -0.9%
inhibition (EGFR (human)): -5.8%
inhibition (FER (human)): -6.8%
inhibition ([4]; compound 0.1 µM): 5.5%
inhibition ([4]; compound 1.0 µM): 15.5%
inhibition (FGFR4 (human); compound 0.1 µM): -0.6%
inhibition (FGFR4 (human); compound 1.0 µM): 15.7%
inhibition (IKBKB (human); compound 0.1 µM): 1.4%
inhibition (IKBKB (human); compound 1.0 µM): -1.2%
inhibition (INSR (human); compound 0.1 µM): 1.4%
inhibition (INSR (human); compound 1.0 µM): 3.5%
inhibition (MAPK1 (human); compound 0.1 µM): -2.4%
inhibition (MAPK1 (human); compound 1.0 µM): -1.9%
inhibition (MAPK14 (human); compound 0.1 µM): 5.3%
inhibition (MAPK14 (human); compound 1.0 µM): -2.7%
inhibition (MAPK3 (human); compound 0.1 µM): -10.8%
inhibition (MAPK3 (human); compound 1.0 µM): -1.3%
inhibition (MAPKAPK2 (human); compound 0.1 µM): -14.7%
inhibition (MAPKAPK2 (human); compound 1.0 µM): -4.4%
inhibition (MAPKAPK5 (human); compound 0.1 µM): -20.9%
inhibition (MAPKAPK5 (human); compound 1.0 µM): 4.4%
inhibition (MARK2 (human); compound 0.1 µM): -1.3%
inhibition (MARK2 (human); compound 1.0 µM): 6.5%
inhibition (MARK3 (human); compound 0.1 µM): -7.9%
inhibition (MARK3 (human); compound 1.0 µM): -4.1%
inhibition (NEK2 (human); compound 0.1 µM): -5.7%
inhibition (NEK2 (human); compound 1.0 µM): -0.9%
inhibition (PRKCA (human); compound 0.1 µM): 21.9%
inhibition (PRKCA (human); compound 1.0 µM): -3%
inhibition (PRKCB1 (human); compound 1.0 µM): 0.9%
inhibition (PRKCB2 (human); compound 0.1 µM): -4.2%
inhibition (PRKCB2 (human); compound 1.0 µM): -10.6%
inhibition (PRKD1 (human); compound 0.1 µM): -3.6%
inhibition (PRKD1 (human); compound 1.0 µM): -6.6%
inhibition (ROCK2 (human); compound 0.1 µM): -6.7%
inhibition (ROCK2 (human); compound 1.0 µM): -5.4%
inhibition (RPS6KA2 KD1 KD2 (human); compound 0.1 µM): 6.3%
inhibition (RPS6KA2 KD1 KD2 (human); compound 1.0 µM): 8.8%
inhibition (RPS6KA3 KD1 KD2 (human); compound 0.1 µM): -9.2%
inhibition (RPS6KA3 KD1 KD2 (human); compound 1.0 µM): -1.3%
inhibition (RPS6KA5 KD1 KD2 (human); compound 0.1 µM): -3.5%
inhibition (RPS6KA5 KD1 KD2 (human); compound 1.0 µM): -7.4%
inhibition (RPS6KB1 (human); compound 0.1 µM): -19.5%
inhibition (RPS6KB1 (human); compound 1.0 µM): -2.1%
inhibition (SGK2 (human); compound 0.1 µM): -0.4%
inhibition (SGK2 (human); compound 1.0 µM): -3.6%
inhibition (SYK (human); compound 0.1 µM): 1.2%
inhibition (SYK (human); compound 1.0 µM): -1.7%
SMILES: Cn1cc(-c2cnc3ccc4ccc(CS(=O)(=O)CCc5ccccn5)cc4c(=O)c3c2)cn1

— the kinase profiling compilation of Christmann-Franck et al. (2016)
